Where two headings read alike, the source gives them in different places.
Key:
Assay in all cases: kinase profiling panel
Type in all cases: biochemical
[1] = molecular target: T1, MARK4 (Homo sapiens, UniProt Q96L34); conditions: read-out: % Activity Remaining
T1 sequence (Q96L34 1-752): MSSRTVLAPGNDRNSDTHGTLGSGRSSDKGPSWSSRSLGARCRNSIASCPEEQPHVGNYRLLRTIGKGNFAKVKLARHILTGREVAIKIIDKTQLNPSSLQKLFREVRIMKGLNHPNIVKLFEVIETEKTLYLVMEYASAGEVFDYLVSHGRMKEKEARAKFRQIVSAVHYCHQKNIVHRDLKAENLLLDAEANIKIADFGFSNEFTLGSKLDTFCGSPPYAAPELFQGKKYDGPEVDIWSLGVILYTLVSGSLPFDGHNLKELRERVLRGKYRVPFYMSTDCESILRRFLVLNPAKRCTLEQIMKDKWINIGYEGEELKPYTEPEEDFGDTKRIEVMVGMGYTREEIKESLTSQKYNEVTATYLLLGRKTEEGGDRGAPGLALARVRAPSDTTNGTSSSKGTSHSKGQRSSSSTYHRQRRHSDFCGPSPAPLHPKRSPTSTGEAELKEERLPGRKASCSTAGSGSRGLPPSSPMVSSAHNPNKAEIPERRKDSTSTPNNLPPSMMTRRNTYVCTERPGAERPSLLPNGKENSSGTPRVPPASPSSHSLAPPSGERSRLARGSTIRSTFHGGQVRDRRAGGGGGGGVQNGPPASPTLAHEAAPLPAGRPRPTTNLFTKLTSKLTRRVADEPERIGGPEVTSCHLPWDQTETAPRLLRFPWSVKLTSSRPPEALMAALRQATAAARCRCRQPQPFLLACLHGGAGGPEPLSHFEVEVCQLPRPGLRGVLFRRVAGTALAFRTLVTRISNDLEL
Description: (§1) Protein kinase profiling against a Dundee panel of 140 protein kinases was undertaken at the International Centre for Protein Kinase Profiling. The result for each kinase was presented as a mean kinase activity of the reaction taken in triplicate relative to a control sample treated with DMSO. Assay conditions and abbreviations are available at http://www.kinase-screen.mrc.ac.uk.

[2] = molecular target: T2, EPH-B4 (Homo sapiens, UniProt P54760); conditions: read-out: % Activity Remaining
T2 sequence (P54760 16-987): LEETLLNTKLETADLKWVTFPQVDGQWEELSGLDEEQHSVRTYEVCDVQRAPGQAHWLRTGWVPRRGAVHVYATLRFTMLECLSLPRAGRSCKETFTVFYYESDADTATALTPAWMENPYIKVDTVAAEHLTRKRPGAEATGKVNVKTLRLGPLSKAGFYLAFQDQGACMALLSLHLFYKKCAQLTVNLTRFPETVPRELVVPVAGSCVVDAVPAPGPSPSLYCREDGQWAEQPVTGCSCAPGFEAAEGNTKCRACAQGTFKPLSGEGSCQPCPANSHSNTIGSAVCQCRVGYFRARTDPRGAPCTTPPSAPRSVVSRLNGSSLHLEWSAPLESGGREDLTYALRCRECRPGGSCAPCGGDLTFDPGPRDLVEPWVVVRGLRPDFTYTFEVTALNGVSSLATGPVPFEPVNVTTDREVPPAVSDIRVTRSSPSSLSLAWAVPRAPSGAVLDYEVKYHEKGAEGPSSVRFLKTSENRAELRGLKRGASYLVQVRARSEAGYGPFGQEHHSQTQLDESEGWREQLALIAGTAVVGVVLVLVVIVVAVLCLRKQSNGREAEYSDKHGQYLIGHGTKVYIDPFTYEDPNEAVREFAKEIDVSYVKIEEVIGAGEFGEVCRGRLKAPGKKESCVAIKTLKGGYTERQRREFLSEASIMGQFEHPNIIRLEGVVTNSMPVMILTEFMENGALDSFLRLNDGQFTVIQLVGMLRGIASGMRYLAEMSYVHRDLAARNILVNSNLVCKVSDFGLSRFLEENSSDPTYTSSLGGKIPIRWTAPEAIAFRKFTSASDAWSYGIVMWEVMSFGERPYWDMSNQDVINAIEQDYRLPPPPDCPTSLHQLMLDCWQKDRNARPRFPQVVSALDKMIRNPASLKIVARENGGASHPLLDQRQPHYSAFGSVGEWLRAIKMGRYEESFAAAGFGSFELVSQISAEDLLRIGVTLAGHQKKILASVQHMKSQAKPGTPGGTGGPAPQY
Description: as §1

[3] = molecular target: T3, PINK (Tribolium castaneum, UniProt D6WMX4)
T3 sequence (D6WMX4 1-570): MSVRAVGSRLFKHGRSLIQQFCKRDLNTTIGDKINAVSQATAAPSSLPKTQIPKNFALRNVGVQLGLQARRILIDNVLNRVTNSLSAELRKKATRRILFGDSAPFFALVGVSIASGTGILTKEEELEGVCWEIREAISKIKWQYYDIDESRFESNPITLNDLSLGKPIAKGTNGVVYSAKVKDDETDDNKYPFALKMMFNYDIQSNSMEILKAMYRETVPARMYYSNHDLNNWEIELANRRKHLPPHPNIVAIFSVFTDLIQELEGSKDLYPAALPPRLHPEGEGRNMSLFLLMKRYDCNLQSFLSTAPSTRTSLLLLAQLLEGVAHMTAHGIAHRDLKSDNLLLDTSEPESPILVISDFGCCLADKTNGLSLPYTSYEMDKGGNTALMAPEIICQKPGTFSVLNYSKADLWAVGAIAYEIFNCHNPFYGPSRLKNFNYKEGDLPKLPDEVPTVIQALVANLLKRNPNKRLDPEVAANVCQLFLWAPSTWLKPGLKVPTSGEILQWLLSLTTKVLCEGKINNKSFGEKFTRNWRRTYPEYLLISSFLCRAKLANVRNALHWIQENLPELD
Description: as §1

[4] = molecular target: p38 alpha MAPK (Homo sapiens, UniProt Q16539); conditions: read-out: % Activity Remaining
p38 alpha MAPK, sequence (Q16539 whole entry): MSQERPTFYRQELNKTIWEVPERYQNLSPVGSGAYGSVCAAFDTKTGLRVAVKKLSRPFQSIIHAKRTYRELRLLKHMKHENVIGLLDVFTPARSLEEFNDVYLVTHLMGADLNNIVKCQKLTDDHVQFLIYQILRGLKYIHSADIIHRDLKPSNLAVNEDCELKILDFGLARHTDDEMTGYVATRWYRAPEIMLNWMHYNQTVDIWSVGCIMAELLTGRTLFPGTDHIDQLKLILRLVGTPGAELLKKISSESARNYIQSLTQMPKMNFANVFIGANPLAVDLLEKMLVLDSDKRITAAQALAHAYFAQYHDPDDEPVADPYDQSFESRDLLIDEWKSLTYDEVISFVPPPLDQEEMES
Description: as §1

[5] = molecular target: MNK1 (Homo sapiens, UniProt Q9BUB5); conditions: read-out: % Activity Remaining
MNK1, sequence (Q9BUB5 whole entry): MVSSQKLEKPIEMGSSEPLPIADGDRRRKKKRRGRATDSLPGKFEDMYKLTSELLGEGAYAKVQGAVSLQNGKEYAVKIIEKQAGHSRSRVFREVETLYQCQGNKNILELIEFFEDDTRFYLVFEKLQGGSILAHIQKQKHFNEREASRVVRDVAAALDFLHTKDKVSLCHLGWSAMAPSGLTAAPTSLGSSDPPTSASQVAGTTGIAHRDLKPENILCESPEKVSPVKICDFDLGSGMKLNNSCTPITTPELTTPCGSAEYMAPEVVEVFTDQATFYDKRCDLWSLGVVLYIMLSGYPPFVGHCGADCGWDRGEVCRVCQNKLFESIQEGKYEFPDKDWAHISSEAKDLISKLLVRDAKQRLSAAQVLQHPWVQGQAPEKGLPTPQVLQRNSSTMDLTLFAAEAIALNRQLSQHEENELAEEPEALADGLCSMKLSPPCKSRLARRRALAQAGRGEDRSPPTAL
Description: as §1

[6] = molecular target: T4, TSSK1 (Homo sapiens, UniProt Q9BXA7); conditions: read-out: % Activity Remaining
T4 sequence (Q9BXA7 1-367): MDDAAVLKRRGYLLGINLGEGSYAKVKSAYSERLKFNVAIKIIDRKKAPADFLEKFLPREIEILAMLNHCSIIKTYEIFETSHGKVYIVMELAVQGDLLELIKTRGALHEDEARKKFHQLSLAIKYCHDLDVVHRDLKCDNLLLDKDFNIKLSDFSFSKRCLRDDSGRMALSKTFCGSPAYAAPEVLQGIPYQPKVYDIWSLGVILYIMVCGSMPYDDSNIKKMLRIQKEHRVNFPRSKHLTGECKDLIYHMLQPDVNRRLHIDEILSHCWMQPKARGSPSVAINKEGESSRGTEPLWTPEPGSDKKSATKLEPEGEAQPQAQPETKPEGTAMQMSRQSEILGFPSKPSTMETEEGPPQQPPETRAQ
Description: as §1

[7] = molecular target: MARK1 (Homo sapiens, UniProt Q9P0L2); conditions: read-out: % Activity Remaining
MARK1, sequence (Q9P0L2 whole entry): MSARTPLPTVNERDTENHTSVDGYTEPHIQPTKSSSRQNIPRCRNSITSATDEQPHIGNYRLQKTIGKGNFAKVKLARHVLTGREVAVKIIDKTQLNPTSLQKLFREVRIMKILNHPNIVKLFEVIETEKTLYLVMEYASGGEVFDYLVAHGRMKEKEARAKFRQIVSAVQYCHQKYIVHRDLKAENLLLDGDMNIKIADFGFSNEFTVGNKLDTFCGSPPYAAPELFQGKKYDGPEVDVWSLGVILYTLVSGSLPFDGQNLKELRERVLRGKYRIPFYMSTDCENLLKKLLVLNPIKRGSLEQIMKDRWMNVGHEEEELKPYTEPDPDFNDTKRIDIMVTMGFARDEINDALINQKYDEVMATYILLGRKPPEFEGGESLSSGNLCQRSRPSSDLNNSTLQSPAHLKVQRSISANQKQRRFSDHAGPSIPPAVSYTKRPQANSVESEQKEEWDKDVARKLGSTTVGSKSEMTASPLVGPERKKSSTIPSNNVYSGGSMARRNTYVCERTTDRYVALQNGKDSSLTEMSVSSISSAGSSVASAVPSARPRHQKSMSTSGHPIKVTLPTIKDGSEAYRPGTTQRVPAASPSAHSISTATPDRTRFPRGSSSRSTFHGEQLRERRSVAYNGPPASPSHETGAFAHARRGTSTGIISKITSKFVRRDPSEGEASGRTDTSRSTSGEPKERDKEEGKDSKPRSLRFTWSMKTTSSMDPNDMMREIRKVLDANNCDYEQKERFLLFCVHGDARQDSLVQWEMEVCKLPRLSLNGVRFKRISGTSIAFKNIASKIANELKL
Description: as §1

In the case of `Cc1ccc(F)c(S(=O)(=O)Nc2ccc(-c3nc(OC[C@H]4CN(CCCCCCOCCOCCOCC(=O)N[C@H](C(=O)N5C[C@H](O)C[C@H]5C(=O)NCc5ccc(-c6scnc6C)cc5)C(C)(C)C)CCO4)c4cn[nH]c4n3)cc2)c1` [SGK3-PROTAC1], the remaining activity at 1 µM ([1]; 1 µM) was 105%, the remaining activity at 1 µM ([2]; 1 µM) was 107% and the remaining activity at 1 µM [3] was 108%. For the same molecule, the remaining activity at 1 µM ([4]; 1 µM) was 125%, the remaining activity at 1 µM ([5]; 1 µM) was 108% and the remaining activity at 1 µM ([6]; 1 µM) was 115%. The remaining activity at 1 µM ([7]; 1 µM) was 99%.
Work on `Cc1ccc(F)c(S(=O)(=O)Nc2ccc(-c3nc(OC[C@H]4CNCCO4)c4cn[nH]c4n3)cc2)c1` [308-R, reference compound] yielded a remaining activity at 1 µM [1] of 73%, a remaining activity at 1 µM [2] of 124% and a remaining activity at 1 µM [3] of 119%. It also gave a remaining activity at 1 µM [4] of 88%, a remaining activity at 1 µM [5] of 77% and a remaining activity at 1 µM [6] of 94%. The remaining activity at 1 µM [7] was 109%.
`COc1ccc(Cl)c(S(=O)(=O)Nc2ccc(-c3nc(OC[C@H]4CNCCO4)c4c(C)n[nH]c4n3)cc2)c1` [290-R, reference compound] was tested, and the remaining activity at 1 µM [1] was 98%, the remaining activity at 1 µM [2] was 103% and the remaining activity at 1 µM [3] was 99%. It also gave a remaining activity at 1 µM [4] of 111%, a remaining activity at 1 µM [5] of 87% and a remaining activity at 1 µM [6] of 98%. The remaining activity at 1 µM [7] was 115%.
`Cc1ccc(F)c(S(=O)(=O)Nc2ccc(-c3nc(OC[C@H]4CN(CCCCCCOCCOCCOCC(=O)N[C@H](C(=O)N5C[C@@H](O)C[C@H]5C(=O)NCc5ccc(-c6scnc6C)cc5)C(C)(C)C)CCO4)c4cn[nH]c4n3)cc2)c1` [cisSGK3-PROTAC1] gave a remaining activity at 1 µM ([1]; 1 µM) of 100%, a remaining activity at 1 µM ([2]; 1 µM) of 108% and a remaining activity at 1 µM [3] of 109%. The remaining activity at 1 µM ([4]; 1 µM) was 109%, the remaining activity at 1 µM ([5]; 1 µM) was 103% and the remaining activity at 1 µM ([6]; 1 µM) was 113%. The remaining activity at 1 µM ([7]; 1 µM) was 93%.
